For test [1], the target named is T1, CD73 on U138 human neuroglioma cells (Homo sapiens, UniProt P21589).
T1 construct: U138 cells were obtained from ATCC and cultured in DMEM with 10% FBS; host or cells: U138 human neuroglioma cells
T1 sequence (P21589 27-549): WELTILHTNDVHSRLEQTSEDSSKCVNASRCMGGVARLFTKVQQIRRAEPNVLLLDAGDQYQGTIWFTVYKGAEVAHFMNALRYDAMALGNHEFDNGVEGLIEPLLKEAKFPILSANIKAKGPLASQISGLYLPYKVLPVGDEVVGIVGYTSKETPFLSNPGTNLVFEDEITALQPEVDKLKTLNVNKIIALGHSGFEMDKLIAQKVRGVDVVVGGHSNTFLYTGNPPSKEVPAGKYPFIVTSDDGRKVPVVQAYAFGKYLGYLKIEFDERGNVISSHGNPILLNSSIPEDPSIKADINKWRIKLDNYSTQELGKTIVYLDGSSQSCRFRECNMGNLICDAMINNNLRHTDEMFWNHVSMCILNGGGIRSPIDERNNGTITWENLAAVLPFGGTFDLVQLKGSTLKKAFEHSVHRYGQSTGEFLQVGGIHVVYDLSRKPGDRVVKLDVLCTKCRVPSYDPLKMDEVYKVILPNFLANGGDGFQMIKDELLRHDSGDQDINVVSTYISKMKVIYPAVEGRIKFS
As to the kind of experiment: CD73 Cell-Based Assay. The conditions noted are these: U138 cells, AMP substrate, 2 hours at 37° C., inorganic phosphate by malachite green. The essentials:
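Whole U138 cells washed free of phosphate were incubated with 200 μM AMP (mixture concentration before equal-volume addition) plus compound in HEPES-buffered saline, pH 7.4, for 2 h at 37 °C, 5% CO2. Adenosine-forming activity read as inorganic phosphate released into supernatant by malachite green.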

The target of a further test is T2, Human CD73 (Homo sapiens, UniProt P21589).
T2 construct: purchased R&D Systems; host or cells: CHO cells
T2 sequence (P21589 27-549): T1 sequence (P21589 27-549)
Nature of the test: CD73 Enzyme Assay. It counts as biochemical. The following applies: 0.25 nM hCD73, 25 μM AMP, kinetic read at 360 nm; read-out: CD73 Enzyme Assay IC50.

For `C[C@H](Nc1nc(C#N)nc2c1ccn2[C@@H]1O[C@H](COCP(=O)(O)O)[C@@H](O)[C@H]1O)c1ccc(F)cc1F` [Compound 138, [(2R,3S,4R,5R)-5-[2-cyano-4-[[(1S)-1-(2,4-difluorophenyl)ethyl]-amino]pyrrolo[2,3-d]-pyrimidin-7-yl]-3,4-dihydroxy-tetrahydro-furan-2-yl]methoxy-methylphosphonic acid], the IC50 (in test [1]; on Human CD73) was below 10 nM each time.
For `O=P(O)(O)COC[C@H]1O[C@@H](n2ccc3c(N4CCC(F)(F)CC4)nc(Cl)nc32)[C@H](O)[C@@H]1O` [Compound 128, [(2R,3S,4R,5R)-5-[2-chloro-4-(4,4-difluoro-1-piperidyl)pyrrolo-[2,3-d]pyrimidin-7-yl]-3,4-dihydroxy-tetrahydrofuran-2-yl]-methoxymethylphos-phonic acid], the IC50 (in test [1]; at Human CD73) was 10 to 100 nM throughout.
For `C[C@H](c1ccccc1)N(C)c1nc(Cl)nc2c1ccn2[C@@H]1O[C@H](COCP(=O)(O)OCOC(=O)C(C)(C)C)[C@@H](O)[C@H]1O` [Compound 132, ((((((2R,3S,4R,5R)-5-(2-chloro-4-(methyl((R)-1-phenylethyl)amino)-7H-pyrrolo[2,3-d]pyrimidin-7-yl)-3,4-dihydroxytetrahydrofuran-2-yl)methoxy)methyl)(hydroxy)phosphoryl)oxy)methyl pivalate], the IC50 was 10 to 100 nM in test [1] and below 10 nM at Human CD73.
As for `C[C@H](Nc1nc(Cl)nc2c1ccn2[C@@H]1O[C@H](CS(=O)(=O)CP(=O)(O)O)[C@@H](O)[C@H]1O)c1ccc(C#N)cc1` [Compound 181, [(2S,3S,4R,5R)-5-[2-chloro-4-[[(1S)-1-(4-cyanophenyl)ethyl]-amino]pyrrolo[2,3-d]-pyrimidin-7-yl]-3,4-dihydroxy-tetrahydro-furan-2-yl]methyl-sulfonylmethylphos-phonic acid], the half-maximal inhibitory concentration (IC50) (in test [1]; at Human CD73) was below 10 nM each time.
As for `C[C@H](Nc1ncnc2c1ncn2[C@@H]1O[C@H](COCP(=O)(O)O)[C@@H](O)[C@H]1O)c1ccc(F)cc1` [Compound 49, [(2R,3S,4R,5R)-5-[6-[[(1S)-1-(4-fluoro-phenyl)ethyl]amino]-purin-9-yl]-3,4-dihydroxy-tetrahydro-furan-2-yl]methoxy-methylphosphonic acid], the IC50 (in test [1]; on Human CD73) was 10 to 100 nM each time.
As for `CC(C)(C)C#Cc1nc(NC2CCCC2)c2ccn([C@@H]3O[C@H](COCP(=O)(O)O)[C@@H](O)[C@H]3O)c2n1` [Compound 254, [(2R,3S,4R,5R)-5-[4-(cyclopentylamino)-2-(3,3-dimethylbut-1-ynyl)pyrrolo[2,3-d]-pyrimidin-7-yl]-3,4-dihydroxy-tetrahydro-furan-2-yl]methoxy-methylphosphonic acid], the IC50 (in test [1]; at Human CD73) was 100 to 1000 nM each time.
For `C[C@H](Nc1nc(C#N)nc2c1ccn2[C@@H]1O[C@H](COCP(=O)(O)O)[C@@H](O)[C@H]1O)c1ccc(C#N)cc1` [Compound 141, [(2R,3S,4R,5R)-5-[2-cyano-4-[[(1S)-1-(4-cyanophenyl)ethyl]-amino]pyrrolo[2,3-d]-pyrimidin-7-yl]-3,4-dihydroxy-tetrahydro-furan-2-yl]methoxy-methylphosphonic acid], the IC50 (in test [1]; at Human CD73) was below 10 nM throughout.
For the compound `O=P(O)(O)COC[C@H]1O[C@@H](n2ccc3c(C4CCCC4)nc(Cl)nc32)[C@H](O)[C@@H]1O` [Compound 213, [(2R,3S,4R,5R)-5-(2-chloro-4-cyclopentyl-pyrrolo[2,3-d]-pyrimidin-7-yl)-3,4-dihydroxy-tetrahydro-furan-2-yl]methoxy-methylphosphonic acid], the IC50 (in test [1]; on Human CD73) was 10 to 100 nM each time.
For `N#Cc1nc(N2CC3CCCC3C2)c2ccn([C@@H]3O[C@H](COCP(=O)(O)O)[C@@H](O)[C@H]3O)c2n1` (stereo partly drawn) [Compound 201, [(2R,3S,4R,5R)-5-[4-(3,3a,4,5,6,6a-hexa-hydro-1H-cyclopenta-[c]pyrrol-2-yl)-2-cyano-pyrrolo[2,3-d]-pyrimidin-7-yl]-3,4-dihydroxy-tetrahydro-furan-2-yl]methoxy-methylphosphonic acid], the IC50 (in test [1]; on Human CD73) was below 10 nM in each case.
Consider `C[C@@H](Nc1nc(Cl)nc2c1ccn2[C@@H]1O[C@H](COCP(=O)(O)O)[C@@H](O)[C@H]1O)c1ccc(C#N)cc1` [Compound 89, [(2R,3S,4R,5R)-5-[2-chloro-4-[[(1R)-1-(4-cyanophenyl)ethyl]-amino]pyrrolo[2,3-d]-pyrimidin-7-yl]-3,4-dihydroxy-tetrahydro-furan-2-yl]methoxy-methylphosphonic acid], for which the IC50 (in test [1]; at Human CD73) was below 10 nM each time.
In the case of `C[C@H](Nc1nc(Cl)nc2c1ccn2[C@@H]1O[C@H](COCP(=O)(O)O)[C@@H](O)[C@H]1O)c1ccc(F)cc1` [Compound 68, [(2R,3S,4R,5R)-5-[2-chloro-4-[[(1S)-1-(4-fluorophenyl)ethyl]-amino]pyrrolo[2,3-d]-pyrimidin-7-yl]-3,4-dihydroxy-tetrahydro-furan-2-yl]methoxy-methylphosphonic acid], the IC50 (in test [1]; on Human CD73) was 10 to 100 nM throughout.
In the case of `CN(c1nc(Cl)nc2c1ncn2[C@@H]1O[C@H](COCP(=O)(O)O)[C@@H](O)[C@H]1O)C1CCCC1` [Compound 186, [(2R,3S,4R,5R)-5-[2-chloro-6-[cyclopentyl-(methyl)amino]purin-9-yl]-3,4-dihydroxy-tetrahydrofuran-2-yl]-methoxymethylphos-phonic acid], the IC50 in test [1] is 10 to 100 nM; on Human CD73 it was below 10 nM.
On to `N#Cc1nc(N2CCCCC2)c2ccn([C@@H]3O[C@H](COCP(=O)(O)O)[C@@H](O)[C@H]3O)c2n1` [Compound 143, [(2R,3S,4R,5R)-5-[2-cyano-4-(1-piperidyl)-pyrrolo[2,3-d]-pyrimidin-7-yl]-3,4-dihydroxy-tetrahydro-furan-2-yl]methoxy-methylphosphonic acid], for which the IC50 is 10 to 100 nM in test [1] and below 10 nM on Human CD73.
The corresponding values for `N#Cc1nc(NC2CCCCC2)c2ccn([C@@H]3O[C@H](COCP(=O)(O)O)[C@@H](O)[C@H]3O)c2n1` [Compound 119, [(2R,3S,4R,5R)-5-[2-cyano-4-(cyclohexyl-amino)pyrrolo[2,3-d]-pyrimidin-7-yl]-3,4-dihydroxy-tetrahydro-furan-2-yl]methoxy-methylphosphonic acid] are below 10 nM and below 10 nM.
As to `C[C@@H](Nc1nc(Cl)nc2c1ccn2[C@@H]1O[C@H](COCP(=O)(O)O)[C@@H](O)[C@H]1O)c1ccc(F)cc1` [Compound 69, [(2R,3S,4R,5R)-5-[2-chloro-4-[[(1R)-1-(4-fluorophenyl)ethyl]-amino]pyrrolo[2,3-d]-pyrimidin-7-yl]-3,4-dihydroxy-tetrahydro-furan-2-yl]methoxy-methylphosphonic acid], the IC50 (in test [1]; at Human CD73) was below 10 nM in each case.
For `O=P(O)(O)COC[C@H]1O[C@@H](n2ccc3c(NC4CCCC4)nc(C#CCO)nc32)[C@H](O)[C@@H]1O` [Compound 243, [(2R,3S,4R,5R)-5-[4-(cyclopentylamino)-2-(3-hydroxyprop-1-ynyl)pyrrolo[2,3-d]-pyrimidin-7-yl]-3,4-dihydroxy-tetrahydro-furan-2-yl]methoxy-methylphosphonic acid], the IC50 (in test [1]; on Human CD73) was below 10 nM throughout.
For the compound `C[C@@H](Nc1nc(Cl)nc2c1ccn2[C@@H]1O[C@H](CS(=O)(=O)CP(=O)(O)O)[C@@H](O)[C@H]1O)c1cccc(C#N)c1` [Compound 180, [(2S,3S,4R,5R)-5-[2-chloro-4-[[(1R)-1-(3-cyanophenyl)ethyl]-amino]pyrrolo[2,3-d]-pyrimidin-7-yl]-3,4-dihydroxy-tetrahydro-furan-2-yl]methyl-sulfonylmethylphos-phonic acid], the IC50 (in test [1]; at Human CD73) was below 10 nM throughout.
Turning to `C#Cc1nc(NC2CCCC2)c2ccn([C@@H]3O[C@H](COCP(=O)(O)O)[C@@H](O)[C@H]3O)c2n1` [Compound 244, [(2R,3S,4R,5R)-5-[4-(cyclopentylamino)-2-ethynyl-pyrrolo[2,3-d]-pyrimidin-7-yl]-3,4-dihydroxy-tetrahydro-furan-2-yl]methoxy-methylphosphonic acid], the IC50 (in test [1]; at Human CD73) was below 10 nM throughout.
In the case of `CC(C)N(C)c1nc(Cl)nc2c1ccn2[C@@H]1O[C@H](CS(=O)(=O)CP(=O)(O)O)[C@@H](O)[C@H]1O` [Compound 177, [(2S,3S,4R,5R)-5-[2-chloro-4-[isopropyl-(methyl)amino]-pyrrolo[2,3-d]-pyrimidin-7-yl]-3,4-dihydroxy-tetrahydro-furan-2-yl]methyl-sulfonylmethylphos-phonic acid], the IC50 (in test [1]; at Human CD73) was below 10 nM each time.

Values taken from patent US11591355B2 (Peloton Therapeutics, Inc., priority 2017, dated 2023).
